Source: patent US9358225B2, “Method for treating neurodegeneration using a p38MAPK inhibitor” (Bach Pharma, Inc., priority 2013, dated 2016)

Test system: Atm−/− mice
Assay: Modified rotarod behavioral test
Type: in vivo, mouse
Conditions: P90, after treatment, vs PBS-treated Atm−/− and Atm+/+
Description: The Atm−/− mice were originally generated by Dr. C. Barlow (Barlow et al., 1996). They were purchased from the Jackson Laboratory (Bar Harbor, Me.). Offspring of Atm+/− breeders were genotyped using real-time polymerase chain reaction-based assays of mouse tail DNA. Atm mice (1-month old) were divided into 3 groups: PBS-treated Atm+/+ mice (n=10/group); PBS-treated Atm−/− mice (n=9/group); and SB203580 (4-[5-(4-Fluorophenyl)-2-[4-(methylsulphonyl)phenyl]-1H-imidazol-4-yl]pyridine) treated Atm−/− mice (n=10/group). Mice were intraperitoneally injected with either PBS or SB203580 (4-[5-(4-Fluorophenyl)-2-[4-(methylsulphonyl)phenyl]-1H-imidazol-4-yl]pyridine) (5 mg/kg body weight) at 2-day intervals for 2 months. Animals were sacrificed one day after the last administration. Animal care was in accordance with The University of Texas MD Anderson Cancer Center guidelines for animal experiments.
We have devised a modified version of the standardized rotarod protocol (Columbus Instruments, Columbus, Ohio). […] Following training, three trials of mouse motor coordination were assessed by measuring the time before falling off the rotarod moving at 25 rpm.
Each experiment, including behavioral test, body weight measure and qRT-PCR was repeated at least three times. The proportion of mRNA expression was analyzed from a series of tissue sections. […]

Row | Compound | rotarod performance (time before falling off at 25 rpm)
1 | CC1(C)c2ccc(C(=O)O)cc2C(C)(C)N1[O] [CTMIO, 5-carboxy-1,1,3,3-tetramethylisoindolin-2-yloxyl] | stayed on the rod as long as did Atm+/+ mice
2 | CC(=O)N[C@@H](CS)C(=O)O [NAC, N-acetyl-L-cysteine] | stayed on the rod as long as did Atm+/+ mice
